# Experimental data from PubChem BioAssay (NCI).
# Values joined by “and” are separate entries in the source; they are usually repeats but may differ in a detail not shown here. Equal values may be shown once.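 Five concentrations, 48 hours, 96-well plates. Here, GI50 denotes the concentration required for 50% inhibition of growth. TGI is the concentration that stops growth completely.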
# Columns and labels:
# Assay in all cases: DTP human tumour cell line panel, 48 h
# HCT-116 colon = tested on: HCT-116 colon
# HCT-15 colon = tested on: HCT-15 colon
# IGROV1 ovarian = tested on: IGROV1 ovarian
# NCI-H23 lung = tested on: NCI-H23 lung
# OVCAR-3 ovarian = tested on: OVCAR-3 ovarian
# SF-268 CNS = tested on: SF-268 CNS
# SK-MEL-5 melanoma = tested on: SK-MEL-5 melanoma
# UACC-62 melanoma = tested on: UACC-62 melanoma
# U251 CNS = tested on: U251 CNS
# EKVX NSCLC = tested on: EKVX NSCLC
Structure (SMILES),GI50 (HCT-116 colon),TGI (HCT-116 colon),GI50 (HCT-15 colon),TGI (HCT-15 colon),GI50 (IGROV1 ovarian),TGI (IGROV1 ovarian),GI50 (NCI-H23 lung),TGI (NCI-H23 lung),GI50 (OVCAR-3 ovarian),TGI (OVCAR-3 ovarian),GI50 (SF-268 CNS),TGI (SF-268 CNS),GI50 (SK-MEL-5 melanoma),TGI (SK-MEL-5 melanoma),GI50 (UACC-62 melanoma),TGI (UACC-62 melanoma),GI50 (U251 CNS),TGI (U251 CNS),GI50 (EKVX NSCLC),TGI (EKVX NSCLC)
COc1ccccc1-c1ccc2c(N)c(C(=O)c3ccc4c(c3)OCO4)sc2n1,3.68 µM,15 µM,4.08 µM,53.6 µM,7.93 µM,25.5 µM,12.9 µM,52.8 µM,5.18 µM,22 µM,7.55 µM,32.4 µM,4.52 µM,24.2 µM,4.12 µM,18.6 µM,–,–,–,–
Fc1ccc(-c2c(-c3ccncc3)[nH]c3cccnc23)cc1,> 25 µM,> 25 µM,15.4 µM,> 25 µM,8.45 µM,> 25 µM,> 25 µM,> 25 µM,> 22.2 µM,> 25 µM,> 25 µM,> 25 µM,24.3 µM,> 25 µM,12 µM,> 25 µM,> 25 µM,> 25 µM,–,–
N#Cc1ccc(C(=O)c2cnn(-c3ccc(F)cc3)c2N)cc1,> 25 µM,> 25 µM,> 25 µM,> 25 µM,> 25 µM,> 25 µM,> 25 µM,> 25 µM,> 25 µM,> 25 µM,> 25 µM,> 25 µM,> 25 µM,> 25 µM,> 25 µM,> 25 µM,> 23.1 µM,> 25 µM,–,–
C=C(C)C1CC=C(C)C(O)([C@@]2(O)C[C@H](C(=C)C)CC=C2C)C1 (stereo partly drawn),–,40.1 µM,–,–,–,53.4 µM,–,43.3 µM,–,29.6 µM,–,> 100 µM,–,28.3 µM,–,55.9 µM,–,34.7 µM,–,–
CCOP(=O)(OCC)C(NC(c1ccccc1)c1ccccc1)c1ccsc1 (stereo not drawn),–,–,16.1 µM,84.6 µM,37.6 µM,> 100 µM,19.9 µM,35.5 µM,16.1 µM,32.2 µM,15.5 µM,36.2 µM,18.4 µM,35.1 µM,12.8 µM,25.5 µM,–,–,21.7 µM,41.6 µM
c1ccc(N2CCN(CCCN3CCc4c([nH]c5ccccc45)C3c3cccnc3)CC2)cc1 (stereo not drawn),–,> 100 µM,–,> 100 µM,–,> 100 µM,–,> 100 µM,–,> 100 µM,–,–,–,> 100 µM,–,> 100 µM,–,> 31.6 µM,–,> 100 µM
CC(O)(c1ccc(OCCC[N+](C)(C)C)cc1)C(C)(O)c1ccc(OCCC[N+](C)(C)C)cc1 (stereo not drawn),–,> 100 µM,–,> 100 µM,–,> 100 µM,–,> 100 µM,–,> 100 µM,–,> 100 µM,–,–,–,> 100 µM,–,> 100 µM,–,> 100 µM
C/C(CC(=O)Nc1cccc([N+](=O)[O-])c1)=N/NC(N)=S,–,> 100 µM,–,–,–,> 100 µM,–,> 100 µM,–,> 100 µM,–,> 100 µM,–,> 100 µM,–,> 100 µM,–,> 100 µM,–,> 100 µM
CN(CCc1ccccn1)/[N+]([O-])=N/O (tested in a mixture with another compound),–,> 100 µM,–,> 100 µM,–,> 100 µM,–,> 100 µM,–,> 100 µM,–,> 100 µM,–,> 100 µM,–,> 100 µM,–,–,–,> 100 µM
CC1=C(C(=O)Nc2ccccc2C)C(c2ccccc2O)C(C(=O)Nc2ccccc2C)=C(C)N1,–,36.9 µM,–,29.4 µM,–,37.5 µM,–,> 100 µM,–,36.3 µM,–,70.1 µM,–,61.8 µM,–,35.7 µM,–,–,–,> 100 µM
COC(=O)/C=C(C)/C=C/c1c(C)c(C(C)=O)c(C)n1C,–,> 100 µM,–,> 100 µM,–,> 100 µM,–,> 100 µM,–,> 100 µM,–,> 100 µM,–,–,–,> 100 µM,–,> 100 µM,–,> 100 µM
O=C1NC(c2cccc3ccccc23)Nc2ccccc21 (stereo not drawn),–,–,–,2.28 µM and 2.17 µM,0.0636 µM,> 100 µM,0.0262 µM,24.8 µM,0.0215 µM,0.0568 µM and 0.0442 µM,0.0485 µM,> 100 µM,0.00988 µM,–,–,> 100 µM,0.0259 µM,0.3 µM and 0.83 µM,0.0278 µM,> 100 µM
CC1OC(OC2C(O)C(OCCc3ccc(O)c(O)c3)OC(CO)C2OC(=O)/C=C/c2ccc(O)c(O)c2)C(O)C(O)C1O (stereo not drawn),> 100 µM,> 100 µM,> 100 µM,> 100 µM,47.6 µM,> 100 µM,> 100 µM,> 100 µM,27.4 µM,79.7 µM,> 100 µM,> 100 µM,> 100 µM,> 100 µM,19.1 µM,45.5 µM,–,–,27.6 µM,> 100 µM
CCOC(=O)Nc1cc2c(c(N)n1)N=C(c1ccccc1)CN2,< 0.0001 µM,–,< 0.0001 µM,–,< 0.0001 µM,–,< 0.0001 µM,–,< 0.0001 µM,< 0.0001 µM,< 0.0001 µM,34.8 µM,< 0.0001 µM,< 0.0001 µM,–,–,–,1.42 µM,< 0.0001 µM,46.6 µM
CC[C@@]1(O)C(=O)OCc2c1cc1n(c2=O)Cc2cc3cccc(N)c3nc2-1,16.8 µM,> 100 µM,–,–,11.5 µM,38.8 µM,5.81 µM,31.5 µM,66.8 µM,> 100 µM,2.51 µM,> 100 µM,8.75 µM,> 100 µM,4.74 µM,31.7 µM,3.03 µM,18.8 µM,33 µM,> 100 µM
Cn1c2ccccc2c2c(=O)n(CCCC(=O)NCCc3cnc[nH]3)c3c(-c4ccccc4)nnn3c21,5.95 µM,13.8 µM,14.6 µM,44.1 µM,–,–,13.3 µM,46.9 µM,8.39 µM,16.3 µM,11.7 µM,31.6 µM,9.09 µM,17.2 µM,9.87 µM,17.6 µM,9.46 µM,18.4 µM,10 µM,23.9 µM
CCCCCCCCCCCCSC1=CC(=O)C=CC1=O,6.31 µM,> 43.3 µM,1.92 µM,> 32.4 µM,1.06 µM,3.22 µM,5.69 µM,21.6 µM,1.98 µM,7.91 µM,2.24 µM,10.4 µM,5.54 µM,14.3 µM,7.59 µM,> 36.9 µM,0.311 µM,4.57 µM,–,–
CC(=O)OC(C)(C)C[N+](=O)[O-],–,> 100 µM,–,> 100 µM,–,> 100 µM,–,> 100 µM,–,> 100 µM,–,> 100 µM,–,–,–,–,–,> 100 µM,–,> 100 µM
CCN(CC)CCNc1ccc(N=Nc2cnc3ccccc3c2)c2ccccc12,1.51 µM,2.84 µM,1.47 µM,2.93 µM,1.67 µM,3.77 µM,1.6 µM,3.07 µM,1.78 µM,3.43 µM,1.74 µM,3.48 µM,1.67 µM,3.03 µM,1.7 µM,3.21 µM,1.7 µM,3.2 µM,–,–
COc1ccc(-c2nsc3c2NC(=O)CC3c2cccc(F)c2)cc1 (stereo not drawn),4.14 µM,> 100 µM,2.41 µM,> 100 µM,13.8 µM,> 100 µM,5.02 µM,> 100 µM,3.32 µM,12.3 µM,6.86 µM,> 100 µM,2.81 µM,> 100 µM,4.35 µM,> 100 µM,5.55 µM,> 100 µM,–,–
CN(C)c1ccc2cc3c(cc2c1)Oc1ccccc1N3.[Cl][Zn][Cl],2.04 µM,4.34 µM,2.24 µM,6.47 µM,12.8 µM,33.8 µM,4.74 µM,21.7 µM,1.5 µM,3 µM,13.6 µM,27.2 µM,3.16 µM,11.9 µM,3.43 µM,13.4 µM,–,–,7.01 µM,28.5 µM
O=C(O)C1C2C=CC(O2)C1C(=O)NCc1ccncc1 (stereo not drawn),–,> 100 µM,–,–,–,> 100 µM,–,–,–,> 100 µM,–,> 100 µM,–,> 100 µM,–,> 100 µM,–,> 100 µM,–,> 100 µM
CC(=O)CCn1[nH]c(=O)c(Cl)c(Cl)c1=O,–,> 100 µM,–,> 100 µM,–,> 100 µM,–,> 100 µM,–,> 100 µM,–,> 100 µM,–,> 100 µM,–,> 100 µM,–,–,–,> 100 µM
Cc1cc(=O)n2c(cc3cccccc32)n1,–,–,–,> 100 µM,–,> 100 µM,–,> 100 µM,–,> 100 µM,–,> 100 µM,–,–,–,> 100 µM,–,> 100 µM,–,> 100 µM
CCCCCCCCC1C(C)c2c([nH]c3ccccc23)C2C(=O)N(c3ccccc3)C(=O)C21 (stereo not drawn),–,12.5 µM,–,25.6 µM,–,36.2 µM,–,14.7 µM,–,16.7 µM,–,–,–,31.7 µM,–,36.4 µM,–,22.9 µM,–,51.1 µM
O=C(CO)CC(=O)C(=O)Nc1cccc(C(F)(F)F)c1,–,> 100 µM,–,> 100 µM,–,> 100 µM,–,> 100 µM,–,> 100 µM,–,> 100 µM,–,–,–,> 100 µM,–,–,–,–
